Publication PMC12396409, “Screening and hit evaluation of a microbial metabolite library against the pathogenic Plasmodium falciparum and Toxoplasma gondii parasites” (International Journal for Parasitology: Drugs and Drug …, 2025)
Like-named read-outs stand apart in the source and are kept apart here.

Legend:
[1] = system: T. gondii RH strain (RH-Tub-eYFP) tachyzoites; assay: microbe, parasite or virus in culture; assay type: cell-based, Toxoplasma gondii; conditions: 72 h; for percent parasite growth at 2 µg/mL: Toxoplasma gondii
[2] = system: P. falciparum 3D7 parasites; assay: P. falciparum growth inhibition assay, 2-cycle (120 h treatment), delayed-death screen and dose-response; assay type: cell-based, Plasmodium falciparum; conditions: for activity at 2 µg/mL: Plasmodium falciparum
[3] = system: P. falciparum 3D7 parasites; assay: P. falciparum growth inhibition assay, 1-cycle (72 h treatment), SYBR DNA staining (library screen at 2 μg/mL and dose-response); assay type: cell-based, Plasmodium falciparum; conditions: for activity at 2 µg/mL: Plasmodium falciparum
[4] = library screen at 2 μg/mL, % growth, replicate 1
[5] = library screen at 2 μg/mL, % growth, replicate 2
[6] = library screen at 2 μg/mL, 120 h, % growth, replicate 1
[7] = library screen at 2 μg/mL, 120 h, % growth, replicate 2
[8] = library screen at 2 μg/mL, 72 h, % growth, replicate 1
[9] = library screen at 2 μg/mL, 72 h, % growth, replicate 2
[10] = T. gondii, parasite screen 2 μg/mL, % growth, replicate 1, read-out: Tg_72h_%Growth_Rep1
[11] = T. gondii, parasite screen 2 μg/mL, % growth, replicate 2, read-out: Tg_72h_%Growth_Rep2
[12] = 3D7, 120 h, P. falciparum, 120 h, parasite screen 2 μg/mL, % growth, replicate 1, read-out: Pf_120h_%Growth_Rep1
[13] = 3D7, 120 h, P. falciparum, 120 h, parasite screen 2 μg/mL, % growth, replicate 2, read-out: Pf_120h_%Growth_Rep2
[14] = 3D7, 72 h, P. falciparum, 72 h, parasite screen 2 μg/mL, % growth, replicate 1, read-out: Pf_72h_%Growth_Rep1
[15] = 3D7, 72 h, P. falciparum, 72 h, parasite screen 2 μg/mL, % growth, replicate 2, read-out: Pf_72h_%Growth_Rep2

`COc1c(Cl)c(O)c(Cl)c(C)c1C(=O)O[C@H]1[C@H](O)C[C@H](O[C@H]2[C@@H](O)CC(=O)O[C@@H]2C)O[C@@H]1C` [Flambalactone] gave a Tg_72h_%Growth_Rep1 [1, 4] of 143.45%, a Tg_72h_%Growth_Rep2 [1, 5] of 100.30% and a Pf_120h_%Growth_Rep1 [2, 6] of 97.51%. It also gave a Pf_120h_%Growth_Rep2 [2, 7] of 89.66%, a Pf_72h_%Growth_Rep1 [3, 8] of 83.21% and a Pf_72h_%Growth_Rep2 [3, 9] of 82.63%.
In the case of `CC[C@H](C)C(=O)O[C@H]1C[C@H](O)C=C2C=C[C@H](C)[C@H](CC[C@@H](O)C[C@@H](O)CC(=O)O)[C@H]21` [Pravastatin sodium], the percent parasite growth at 2 µg/mL [1, 10] was 92.2%, the percent parasite growth at 2 µg/mL [1, 11] was 94.6% and the activity at 2 µg/mL [2, 12] was 96.8%. The activity at 2 µg/mL [2, 13] was 111%, the activity at 2 µg/mL [3, 14] was 83.8% and the activity at 2 µg/mL [3, 15] was 99.3%.
`CCC(C)(C)C(=O)O[C@H]1C[C@@H](C)C=C2C=C[C@H](C)[C@H](CC[C@@H]3C[C@@H](O)CC(=O)O3)[C@H]21` [Simvastatin] was tested, and the percent parasite growth at 2 µg/mL [1, 10] was 93.5%, the percent parasite growth at 2 µg/mL [1, 11] was 71.4% and the activity at 2 µg/mL [2, 12] was 83.8%. The activity at 2 µg/mL [2, 13] was 70.2%, the activity at 2 µg/mL [3, 14] was 83.1% and the activity at 2 µg/mL [3, 15] was 118%.
`CC(=O)N[C@H](COC(C)=O)[C@H](O)c1ccc([N+](=O)[O-])cc1` [Corynecin IV] was tested, and the Tg_72h_%Growth_Rep1 ([1]; T. gondii, screen at 2 μg/mL, replicate 1) was 146.78%, the Tg_72h_%Growth_Rep2 ([1]; T. gondii, screen at 2 μg/mL, replicate 2) was 106.28% and the Pf_120h_%Growth_Rep1 ([2]; P. falciparum, 120 h, screen at 2 μg/mL, replicate 1) was 80.18%. For the same compound, the Pf_120h_%Growth_Rep2 ([2]; P. falciparum, 120 h, screen at 2 μg/mL, replicate 2) was 96.02%, the Pf_72h_%Growth_Rep1 ([3]; P. falciparum, 72 h, screen at 2 μg/mL, replicate 1) was 87.87% and the Pf_72h_%Growth_Rep2 ([3]; P. falciparum, 72 h, screen at 2 μg/mL, replicate 2) was 87.15%.
`CC[C@H]1CCC[C@H](O)[C@@H](C)C(=O)C2=C[C@H]3[C@@H]4C[C@H](O)C[C@H]4CC[C@H]3[C@@H]2CC(=O)O1` [Dihydrospinosyn A aglycone] gave a Tg_72h_%Growth_Rep1 [1, 4] of 141.87%, a Tg_72h_%Growth_Rep2 [1, 5] of 82.63% and a Pf_120h_%Growth_Rep1 [2, 6] of 88.50%. The Pf_120h_%Growth_Rep2 [2, 7] was 102.89%, the IC50 ([3]; 3D7, 72 h treatment, mean ± S.D., n ≥ 3, read-out: IC50 (μM), P. falciparum) was greater than 1 µM and the “Screen (P. falciparum)” value ([3]; library screen at 2 μg/mL, 3D7, 72 h, DD from the 120 h timepoint) was “I”. For the same compound, the Pf_72h_%Growth_Rep1 [3, 8] was 96.92% and the Pf_72h_%Growth_Rep2 [3, 9] was 105.46%.
Work on `COC(=O)c1cc(O)cc(OC)c1Oc1cc(C)cc(O)c1C(=O)O` [Asterric Acid] yielded a percent parasite growth at 2 µg/mL ([1]; library screen at 2 μg/mL, % growth, replicate 1, read-out: Tg_72h_%Growth_Rep1) of 79.1%, a percent parasite growth at 2 µg/mL ([1]; library screen at 2 μg/mL, % growth, replicate 2, read-out: Tg_72h_%Growth_Rep2) of 94.1% and an activity at 2 µg/mL ([2]; 3D7, library screen at 2 μg/mL, 120 h, % growth, replicate 1, read-out: Pf_120h_%Growth_Rep1) of 145%. It also gave an activity at 2 µg/mL ([2]; 3D7, library screen at 2 μg/mL, 120 h, % growth, replicate 2, read-out: Pf_120h_%Growth_Rep2) of 103%, an activity at 2 µg/mL ([3]; 3D7, library screen at 2 μg/mL, 72 h, % growth, replicate 1, read-out: Pf_72h_%Growth_Rep1) of 98.8% and an activity at 2 µg/mL ([3]; 3D7, library screen at 2 μg/mL, 72 h, % growth, replicate 2, read-out: Pf_72h_%Growth_Rep2) of 86.1%.
`COc1c(O)c(C)c(C)c(O)c1OC` [BIA-H1651] gave a Tg_72h_%Growth_Rep1 ([1]; T. gondii RH, library screen at 2 μg/mL, % growth, replicate 1) of 138.57%, a Tg_72h_%Growth_Rep2 ([1]; T. gondii RH, library screen at 2 μg/mL, % growth, replicate 2) of 100.12% and a Pf_120h_%Growth_Rep1 ([2]; P. falciparum 3D7, 120 h, library screen at 2 μg/mL, % growth, replicate 1) of 17.29%. It also gave a Pf_120h_%Growth_Rep2 ([2]; P. falciparum 3D7, 120 h, library screen at 2 μg/mL, % growth, replicate 2) of 12.27%, a Pf_72h_%Growth_Rep1 ([3]; P. falciparum 3D7, 72 h, library screen at 2 μg/mL, % growth, replicate 1) of 6.09% and a Pf_72h_%Growth_Rep2 ([3]; P. falciparum 3D7, 72 h, library screen at 2 μg/mL, % growth, replicate 2) of 2.27%.
`COC(=O)[C@]1(Cc2ccc3c(c2)C[C@H](O)C(C)(C)O3)OC(=O)C(O)=C1c1ccc(O)cc1` [Butyrolactone V] showed a percent parasite growth at 2 µg/mL ([1]; T. gondii, screen at 2 μg/mL, replicate 1, read-out: Tg_72h_%Growth_Rep1) of 130%, a percent parasite growth at 2 µg/mL ([1]; T. gondii, screen at 2 μg/mL, replicate 2, read-out: Tg_72h_%Growth_Rep2) of 90% and an activity at 2 µg/mL ([2]; 3D7, P. falciparum, 120 h, screen at 2 μg/mL, replicate 1, read-out: Pf_120h_%Growth_Rep1) of 100%. For the same compound, the activity at 2 µg/mL ([2]; 3D7, P. falciparum, 120 h, screen at 2 μg/mL, replicate 2, read-out: Pf_120h_%Growth_Rep2) was 94.5%, the activity at 2 µg/mL ([3]; 3D7, P. falciparum, 72 h, screen at 2 μg/mL, replicate 1, read-out: Pf_72h_%Growth_Rep1) was 83.9% and the activity at 2 µg/mL ([3]; 3D7, P. falciparum, 72 h, screen at 2 μg/mL, replicate 2, read-out: Pf_72h_%Growth_Rep2) was 90.6%.
